The text below walks through data of patent EP2111861A1, “Compositions of phosphodiesterase type IV inhibitors” (Ranbaxy Laboratories Limited, priority 2008, dated 2009).

Assay [1] deals with LPS induced rat neutrophilia. Description: LPS induced rat neutrophilia model, PDE IV inhibitor in combination with corticosteroids. Conditions: Compound No. 266 in combination with corticosteroid (not named), intratracheal, neutrophil count in BAL. It counts as in vivo. As for the experimental part: PDE-4 inhibitor and corticosteroids were instilled intratracheally under anesthesia at different doses, either alone or in combination. LPS challenge: One hour after drug instillation, (LPS 20 µg/200 µl of PBS) was instilled intratracheally. One group of vehicle treated rats were instilled with 200 µl of phosphate buffered saline (PBS) and served as negative control. Bronchoalveolar lavage (BAL): Two hours after LPS challenge, bronchoalveolar lavage was performed; the animals were sacrificed using thiopentone sodium (150 mg/kg/i.p.). Trachea was cannulated and BAL was performed using Hank's Buffer salt solution (HBSS) (5 ml x 10 times). The bronchoalveolar lavage fluid was centrifuged at 800 g for 5 min, at 4°C and the pellet was resuspended in 1 ml HBSS. Total leukocyte count was performed in the resuspended sample by using hemocytometer. A cytocentrifuge preparation was made using the resuspended bronchoalveolar lavage fluid on a glass slide, stained with Leishmann's stain and then differential leukocyte counts was performed for computation of neutrophil. Statistical significance of each parameter in different treatment groups was determined with respective to vehicle control group using one-way analysis of variance followed by Dunnett's 't' test for multiple comparison. A p level of ≤ 0.05 was considered to be statistically significant.

In assay [2] the test system is TNF-α release from human PBMCs. As to the kind of experiment: Cell based Assay for TNF-α release, PDE IV inhibitor in combination with p38 MAP Kinase inhibitors. Conditions: inhibiting TNF-α release from human PBMCs, LPS stimulated, compound alone. The method, then: Blood was collected in heparin or EDTA vacutainers from healthy human volunteers and Peripheral Blood Mononuclear Cells isolated using Ficoll Hypaque gradient. The cells were resuspended in serum free RPMI 1640 medium at a concentration of 2 million cells/ml.). 1 ml of this cell suspension was co-incubated with 20 µl of compound, alone or in combination, for 10 min in a flat bottom 96 well microtiter plate. Compounds were dissolved in DMSO initially and diluted in medium for a final concentration of 0.2 % DMSO. LPS (1 µg/ml, final concentration) was then added at a volume of 10 µl per well. After 30 min, 20 µl of fetal calf serum (final concentration of 10 %) was added to each well. Cultures were incubated overnight at 37 °C in an atmosphere of 5 % CO2 and 95 % air. Supernatant were then removed and tested by ELISA for TNF-α release using a commercial kit (e.g. BD Biosciences). The level of TNF-α in treated wells was compared with the vehicle treated controls and inhibitory potency of compound was expressed as IC50 values calculated from the percent inhibition values by using Graph pad prism. Percent inhibition = 100-(Percent TNF-α drug treated)/(Percent TNF-α in vehicle treated) × 100 [formula]

Assay [3] relates to LPS induced airway hyperreactivity. Description: LPS induced airway hyperreactivity (PC100, Penh), PDE-IV inhibitor in combination with muscarinic receptor antagonist. It counts as in vivo, Wistar rats. Conditions: intratracheal. As for the experimental part:
MRA (1ng/kg to 1mg/kg) and PDE-IV inhibitor (1ng/kg to 1mg/kg) were instilled intratracheally under anesthesia either alone or in combination.
Wistar rats weighing 200±20gm were used in the study. Rats had free access to food and water. On the day of experiment, animals were exposed to lipopolysaccharide (LPS, 100µg/ml) for 40 min. One group of vehicle treated rats was exposed to phosphate buffered saline (PBS) for 40 min. four hours after LPS/PBS exposure, animals were placed inside a whole body plethysmograph (Buxco Electronics, USA) and exposed to PBS or increasing concentration of acetylcholine (1, 6, 12, 24, 48 and 96 mg/ml) aerosol until Penh values (index of airway resistance) of rats attained 2 times the value (PC-100) seen with PBS alone. The respiratory parameters were recorded online using Biosystem XA software, (Buxco Electronics, USA). Penh, at any chosen dose of acetylcholine was expressed as percent of PBS response and using a nonlinear regression analysis PC100 (2 folds of PBS value) values were computed. Percent inhibition was computed using the following formula. % Inhibition = (PC100_LPS -PC100_TEST)/(PC100_LPS -PC100_PBS) × 100 [formula] Where, PC100LPS = PC100 in vehicle treated and LPS challenged group PC100TEST = PC100 in group treated with a given dose of test compound PC100PBS = PC100 in vehicle treated group challenged with PBS

The subject of a further assay is TNF-α release. As to the kind of experiment: Cell based Assay for TNF-α release, PDE IV inhibitor in combination with corticosteroids. Conditions: Compound No. 266 in combination with corticosteroid (not named), human PBMC. The method, then:
Blood was collected in heparin or EDTA vacutainers from healthy human volunteers and Peripheral Blood Mononuclear Cells isolated using Ficoll Hypaque gradient. The cells were resuspended in serum free RPMI 1640 medium at a concentration of 2 million cells/ml). 1 ml of this cell suspension was co-incubated with 20 µl of compound, alone or in combination (PDE IV inhibitor and corticosteroid), for 10 min in a flat bottom 96 well microtiter plate The aforesaid compounds were dissolved in DMSO initially and diluted in medium for a final concentration of 0.2 % DMSO. LPS ([…], final concentration) was then added at a volume of 10 µl per well. After 30 min, 20 µl of fetal calf serum (final concentration of 10 %) was added to each well. Cultures were incubated overnight at 37 °C in an atmosphere of 5 % CO2 and 95 % air. Supernatant was then removed and tested by ELISA for TNF-α release using a commercial kit (e.g. BD Biosciences). The level of TNF-α in treated wells was compared with the vehicle treated controls and inhibitory potency of compound was expressed as IC50 values calculated by from percent inhibition values using Graph pad prism. […] Percent inhibition = 100-(Percent TNF-α drug treated)/(Percent TNF-α in vehicle treated) × 100 [formula]

Where [4] appears, read: Compound No. 266 in combination with Tiotropium (MRA), PC100.

Structures are written as SMILES.

Regarding `COc1cc(C2=NO[C@]3(CCOC3)C2)ccc1OC(F)F` (single isomer, unassigned) [Compound No. 266, (5S or 5R)-3-[4-(Difluoromethoxy)-3-methoxyphenyl]-1,7-dioxa-2-azaspiro[4.4]non-2-ene], in assay [1], the “Combination Index” value was determined as 0.58 and the synergy with corticosteroids result is given as “synergy”. For the same molecule, the IC50 in assay [2] was 0.076 µM. Further, the “effect when administered alone” value in assay [3] (10 µg/kg) is recorded as “ineffective”. Also, in assay [3] (setting [4]), the Combination Index was 0.26 and the “synergy with Tiotropium (MRA)” value is recorded as “synergy”. In the assay on TNF-α release, the “Combination Index” value is reported as 0.21 and the synergy with corticosteroids result was “synergy”.
In the case of `Cc1ccccc1-c1cc2cnc(NC3CCN(S(C)(=O)=O)CC3)nc2n([C@H]2CCOC2)c1=O` [Compound No. 44a, 6-(2-Methylphenyl)-2-{[1-(methylsulfonyl)piperidin-4-yl]amino}-8-[(3S)-tetrahydrofuran-3-yl]pyrido[2,3-d]pyrimidin-7(8H)-one], the IC50 in assay [2] (PBMC) was found to be 0.003 µM.
On the same count and under the same terms, the figure for `Cc1ccccc1-c1cc2cnc(NC3CCN(S(C)(=O)=O)CC3)nc2n([C@@H]2CCOC2)c1=O` [Compound No. 46a, 6-(2-Methylphenyl)-2-{[1-(methylsulfonyl)piperidin-4-yl]amino}-8-[(3R)-tetrahydrofuran-3-yl]pyrido[2,3-d]pyrimidin-7(8H)-one] is 0.002 µM.
Still for that read-out and setting: under `Cc1ccccc1-c1cc2cnc(NC3CCN(C(=O)NC(C)C)CC3)nc2n([C@@H]2CCOC2)c1=O` [Compound No. 47a, N-Isopropyl-4-({6-(2-methylphenyl)-7-oxo-8-[(3R)-tetrahydrofuran-3-yl]-7,8-dihydropyrido[2,3-d]pyrimidin-2-yl}amino)piperidine-1-carboxamide] stands 0.022 µM.
Turning to `Cc1n(CCCOC(=O)[C@](O)(c2ccccc2)[C@@H]2CCC(F)(F)C2)cc[n+]1Cc1ccccc1.[Br-]` [Compound No. 104aa, 3-Benzyl-1-[3-({(2R)-2-[(1R)-3,3-difluorocyclopentyl]-2-hydroxy-2-phenylacetyl}oxy)propyl]-2-methyl-1H-imidazol-3-ium bromide], in assay [3] (10 ng/kg), the “effect when administered alone” value is “not effective”.
Turning to `O=c1ncn2nc(Sc3ccc(F)cc3F)ccc2c1-c1c(Cl)cccc1Cl` [Vx-745, reference compound], the IC50 in assay [2] (PBMC) turned out to be 0.014 µM.

By IC50 is commonly meant the concentration that inhibits the measured activity by half.
